The test system of one assay is PI4K2A (PI4K2 alpha). As to the kind of experiment: SelectScreen Kinase Profiling Service (PIPK profiling). The class given is biochemical. As to conditions: 1 μM UNI418; [ATP] 10 μM. The source says:
(§1) UNI418 has a core structure consisting of 4-quinazolinamine (Fig. 1a, green), which is often found in kinase inhibitors. […] The phosphoinositide (PI) system is a crucial regulatory mechanism in membrane trafficking and is tightly regulated through phosphorylation cascades by multiple phosphatidylinositol phosphate kinases (PIPKs)[30]. We hypothesized that UNI418 may inhibit PIPK(s) and performed PIPK profiling analysis. […] To test whether UNI418 interacts with PIP5K1C and PIKfyve, we performed a CETSA, which determines the characteristics of protein stabilization upon ligand binding to the target protein[31]. UNI418- or DMSO-treated cell lysates were incubated at different temperatures, and the presence of the target protein in the soluble fraction was analyzed by Western blotting (Fig. 1c).
(§2) Fig. 1 UNI418 specifically targets PIP5K1 and PIKfyve. a Chemical structure of UNI418. The 4-quinazolinamine core is highlighted in green. b Table of the kinase profiling analysis. Inhibition of several kinases was determined at a 1 μM concentration of UNI418 and analyzed by the SelectScreen Kinase Profiling Service (Thermo Fisher Scientific). c Cellular thermal shift assay. Ectopically expressed GFP-PIP5K1C and GFP-PIKfyve were heated to the indicated temperatures with/without UNI418, and the presence of protein in the soluble fraction was analyzed by Western blot analysis. TEXT PRINTED IN THE PICTURE: (b) UNI418: % Inhibition (mean): 11 ([ATP] Tested (μM): 10; Kinase Tested: PI4K2A (PI4K2 alpha)); % Inhibition (mean): 4 ([ATP] Tested (μM): 10; Kinase Tested: PI4K2B (PI4K2 beta)); % Inhibition (mean): -6 ([ATP] Tested (μM): 10; Kinase Tested: PI4KA (PI4K alpha)); % Inhibition (mean): 48 ([ATP] Tested (μM): Km app; Kinase Tested: PI4KB (PI4K beta)); % Inhibition (mean): 20 ([ATP] Tested (μM): 10; Kinase Tested: PIK3C2B (PI3K-C2 beta)); % Inhibition (mean): 22 ([ATP] Tested (μM): 10; Kinase Tested: PIK3C2G (PI3K-C2 gamma)); % Inhibition (mean): 4 ([ATP] Tested (μM): 100; Kinase Tested: PIK3C3 (hVPS34)); % Inhibition (mean): 8 ([ATP] Tested (μM): 10; Kinase Tested: PIK3CA/PIK3R3 (p110 alpha/p55 gamma)); % Inhibition (mean): 7 ([ATP] Tested (μM): 10; Kinase Tested: PIK3CB/PIK3R2 (p110 beta/p85 beta)); % Inhibition (mean): 9 ([ATP] Tested (μM): 10; Kinase Tested: PIP4K2A); % Inhibition (mean): 67 ([ATP] Tested (μM): 10; Kinase Tested: PIP5K1A); % Inhibition (mean): 93 ([ATP] Tested (μM): 10; Kinase Tested: PIP5K1B); % Inhibition (mean): 93 ([ATP] Tested (μM): 10; Kinase Tested: PIP5K1C); % Inhibition (mean): 100 ([ATP] Tested (μM): 100; Kinase Tested: PIKFYVE) | (b) Apilimod: % Inhibition (mean): 100 ([ATP] Tested (μM): 100; Kinase Tested: PIKFYVE) […]

A further assay relates to PI4K2B (PI4K2 beta). The description is as above. The class given is biochemical. As to conditions: 1 μM UNI418; [ATP] 10 μM.
From the text: as §1, §2

Another assay relates to PI4KA (PI4K alpha). The description is as above. The class given is biochemical. Conditions: 1 μM UNI418; [ATP] 10 μM.
From the text: as §1, §2

A further assay relates to PI4KB (PI4K beta). Described as above. In kind it is biochemical. As to conditions: 1 μM UNI418; [ATP] Km app.
From the text: as §1, §2

The test system of the next assay is PIK3C2B (PI3K-C2 beta). The description is as above. The class given is biochemical. As to conditions: 1 μM UNI418; [ATP] 10 μM.
From the text: as §1, §2

Another assay relates to PIK3C2G (PI3K-C2 gamma). The assay is described as above. The class given is biochemical. Conditions: 1 μM UNI418; [ATP] 10 μM.
From the text: as §1, §2

For the next assay, the system named is PIK3C3 (hVPS34). The description is as above. As to conditions: 1 μM UNI418; [ATP] 100 μM. In kind it is biochemical.
From the text: as §1, §2

Assay [1] relates to PIK3CA/PIK3R3 (p110 alpha/p55 gamma). The description is as above. The class given is biochemical. As to conditions: 1 μM UNI418; [ATP] 10 μM.
From the text: as §1, §2

Assay [2] deals with PIK3CB/PIK3R2 (p110 beta/p85 beta). Described as above. The class given is biochemical. As to conditions: 1 μM UNI418; [ATP] 10 μM.
From the text: as §1, §2

The next assay relates to PIP4K2A. Described as above. As to conditions: 1 μM UNI418; [ATP] 10 μM. The class given is biochemical.
From the text: as §1, §2

Assay [3] concerns SARS-CoV-2 spike protein (Spike-HexaPro). The class given is cell-based.
Another assay concerns RPE1 cells. In words: Vacuolization analysis. In kind it is cell-based. The protocol: CUGAUCAAGAU G A -3 and PIKfyve#2 siRNA 5'-
[…] -3'. siRNA oligonucleotides were purchased from Genolution, Sigma- Aldrich and Integrated DNA Technologies.
These siRNAs were transfected into the cell using lipofectamine RNAiMAX (Invitrogen, 13778150) following manufacturer ’s protocol.
RPE1 cells were treated with UNI418 at indicated concentration for over-night.
After that, the image was taken by EVOS M5000 (Thermo Fisher Scientific).
RPE1 cells were treated with UNI418 at the different concentration during the time. Live cell images were taken by Lionheart LX Automated Microscope and analyzed in Gen5 (Agilent).
RPE1 cells were treated with indicated doses of UNI418 overnight. To analyze PIP2 level by flow cytometry, trypsinized cells were fixed with 4% paraformaldehyde for 10 min at room temperature. The fixed cells were permeabilized with 0.2% PBS-T (Triton X-100) for 5min and blocked with 5% Bovine Serum Albumin (BSA), and stained with the primary antibody for 4h at 4°C. Cells were washed three times with 1% BSA-PBS and incubated with the fluorescence- conjugated secondary antibody Alexa Fluor® 488 AffiniPure Goat Anti-Mouse IgG (H+L) (Jackson ImmunoResearch,111- 545- 003) for 1h at room temperature analyzed by BD Accuri C6 Plus flow cytometer (BD Biosciences). […]

Molecules are shown by their SMILES.

Turning to `c1ccc(-c2cc(Nc3nc(-c4ccncc4)nc4ccccc34)n[nH]2)cc1` [UNI418, N -(5-phenyl-1 H -pyrazol-3-yl)-2-(4-pyridinyl)-4-quinazolinamine], the “% Inhibition (mean)” value with PI4K2A (PI4K2 alpha) is recorded as 11%; in the assay on PI4K2B (PI4K2 beta), 4%; in the assay on PI4KA (PI4K alpha) it was -6%; with PI4KB (PI4K beta) it was 48%; in the assay on PIK3C2B (PI3K-C2 beta), 20%; in the assay with PIK3C2G (PI3K-C2 gamma), 22%. For the same molecule, the “% Inhibition (mean)” value in the assay on PIK3C3 (hVPS34) came out at 4%; in assay [1] it was 8%; in [2] it was 7%; with PIP4K2A it was 9%. Besides, the “delay in generation of the mature Spike-HexaPro cleavage product” value in assay [3] is 3 h. In the assay with RPE1 cells, the vacuolization result is “induced vacuolization”.

For the origin of these results see PMC11372076, “A dual inhibitor of PIP5K1C and PIKfyve prevents SARS-CoV-2 entry into cells” (Experimental & Molecular Medicine, 2024).
